Usually IC50 stands for the concentration that inhibits the measured activity by half.

The target of one series is CDK8/Cyclin C (Homo sapiens, UniProt P49336). Put plainly: Inhibition of kinase tracer 236 binding to His tagged recombinant human CDK8/cyclin C incubated for 60 min FRET based LanthaScreen Eu-Kinase binding assay. It is filed as protein-complex assay. A general note: In TR-FRET formats the signal depends on donor and acceptor labels being close together.
The nature of series [1]: Inhibition of NF kappa B dependent CDK8/CDK19 in HEK293 cell incubated for 3 hrs in presence of TNF-alpha by Spectra max microtitre plate reader. It counts as cell-based. To be noted: Homo sapiens, HEK293, 3 h.
Series [2] is described as follows: Inhibition of CDK8/CDK19 in MV4-11 cells and measured after 7 days by Spectra max iD5 microplate reader. It counts as cell-based, Homo sapiens.
Series [3] concerns HEK293. Put plainly: Downregulation of CDK8/19 in HEK293 cells assessed as reversal of mRNA expression level in MYC gene at 1 uM for 3 hr pretreatment and measured after 3 hr post wash-off by qt-PCR analysis. It counts as functional, cell-based. The settings on record: Homo sapiens, time 6.0 hrs.
In series [4] the target is T1, CDK8/Cyclin C (Homo sapiens) (UniProt P49336+P24863). Put plainly: Binding affinity to kinase tracer 236 binding to His tagged recombinant human CDK8/cyclinC assessed as rate constant (kon) by TR FRET based assay. It is filed as protein-complex assay.
Series [5] has as its target T2, Cyclin-C/Cyclin-dependent kinase 19 (Homo sapiens) (UniProt Q9BWU1+P24863). As to the kind of experiment: Binding affinity to recombinant human CDK19/cyclinC assessed as rate constant (kon) by TR FRET based assay. It counts as protein-complex assay.
In series [6] the target is T1, CDK8/Cyclin C (Homo sapiens). Put plainly: Binding affinity to kinase tracer 236 binding to His tagged recombinant human CDK8/cyclinC assessed as rate constant (koff) by TR FRET based assay. It is filed as protein-complex assay.
In series [7] the target is T2, Cyclin-C/Cyclin-dependent kinase 19 (Homo sapiens). As to the kind of experiment: Binding affinity to recombinant human CDK19/cyclinC assessed as rate constant (koff) by TR FRET based assay. It is filed as protein-complex assay.
The target in series [8] is T1, CDK8/Cyclin C (Homo sapiens). Put plainly: Binding affinity to kinase tracer 236 binding to His tagged recombinant human CDK8/cyclinC assessed as mean residence time by TR FRET based assay. It counts as protein-complex assay.
The target in series [9] is T2, Cyclin-C/Cyclin-dependent kinase 19 (Homo sapiens). As to the kind of experiment: Binding affinity to recombinant human CDK19/cyclinC assessed as mean residence time by TR FRET based assay. It is filed as protein-complex assay.
Series [10] has as its target T1, CDK8/Cyclin C (Homo sapiens). As to the kind of experiment: Binding affinity to kinase tracer 236 binding to His tagged recombinant human CDK8/cyclinC assessed as half life by TR FRET based assay. It counts as protein-complex assay.
The target in series [11] is T2, Cyclin-C/Cyclin-dependent kinase 19 (Homo sapiens). As to the kind of experiment: Binding affinity to recombinant human CDK19/cyclinC assessed as half life by TR FRET based assay. It counts as protein-complex assay.
Series [12] is described as follows: Metabolic stability in human hepatocyte assessed as intrinsic clearance at 2 uM measured per 10^6 by LC-MS/MS analysis. To be noted: hepatocytes. It is filed as ADME, cell-based.
Series [13] has as its system HEK293. As to the kind of experiment: Downregulation of CDK8/19 in HEK293 cells assessed as reversal of mRNA expression level in KCTD12 gene at 1 uM for 3 hr pretreatment and measured after 3 hr post wash-off by qt-PCR analysis. It is filed as functional, cell-based. The settings on record: Homo sapiens, time 6.0 hrs.

Activity calls are given as the source filed them. No cut-off for these calls is given here.

Sequence of CDK8/Cyclin C (P49336 whole entry): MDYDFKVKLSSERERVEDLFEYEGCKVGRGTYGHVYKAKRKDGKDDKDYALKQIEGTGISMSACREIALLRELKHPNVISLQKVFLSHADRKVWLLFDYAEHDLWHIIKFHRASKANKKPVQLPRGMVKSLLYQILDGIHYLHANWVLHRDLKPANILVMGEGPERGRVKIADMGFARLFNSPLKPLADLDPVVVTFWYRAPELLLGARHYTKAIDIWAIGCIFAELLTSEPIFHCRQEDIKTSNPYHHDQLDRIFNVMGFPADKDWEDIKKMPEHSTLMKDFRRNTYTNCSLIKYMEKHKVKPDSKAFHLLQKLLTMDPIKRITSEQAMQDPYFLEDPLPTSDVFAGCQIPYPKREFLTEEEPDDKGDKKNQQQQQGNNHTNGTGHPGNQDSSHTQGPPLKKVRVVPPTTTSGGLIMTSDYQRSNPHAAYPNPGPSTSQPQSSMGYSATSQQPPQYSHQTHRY
Sequence of CDK8/Cyclin C (P24863 whole entry, further chain): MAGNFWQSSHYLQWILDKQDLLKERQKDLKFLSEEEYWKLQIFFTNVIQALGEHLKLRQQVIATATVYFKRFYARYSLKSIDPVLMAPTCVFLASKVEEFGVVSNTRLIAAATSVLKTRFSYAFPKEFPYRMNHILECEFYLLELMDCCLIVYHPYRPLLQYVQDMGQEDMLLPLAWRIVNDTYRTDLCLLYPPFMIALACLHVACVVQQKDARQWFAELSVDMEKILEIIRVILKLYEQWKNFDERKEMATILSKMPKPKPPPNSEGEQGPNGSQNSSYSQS

For the compound `CC(C)(C)OC(=O)N1CCN(C(=O)c2ccc3cc(CCNc4ccnc5ccc(C#N)cc45)ccc3c2)CC1`, the values for the half-maximal inhibitory concentration (IC50) (on CDK8/Cyclin C; in [1]; in series [2]) were 19 nM, 137 nM and 209 nM, respectively.

In the case of `FC(F)(F)c1ccc2nccc(NCCc3ccccc3)c2c1`, the half-inhibitory concentration (IC50) on CDK8/Cyclin C is 356 nM; in series [1], greater than 5000 nM.

As to `NC(=O)c1ccc2nccc(NCCc3ccccc3)c2c1`, the IC50 at CDK8/Cyclin C was greater than 1000 nM; in series [1], greater than 5000 nM.

`N#Cc1ccc2nccc(NCCc3ccc4cc(C(=O)N5CCS(=N)(=O)CC5)ccc4c3)c2c1`: the results for the IC50 (on CDK8/Cyclin C; in series [1]; in [2]) were 4.6 nM, 244 nM and 271 nM, respectively.

For `CC(=O)N1CCN(C(=O)c2ccc3cc(CCNc4ccnc5ccc(C#N)cc45)ccc3c2)CC1`, the IC50 was found to be 12 nM at CDK8/Cyclin C, 184 nM in [1] and 297 nM in series [2].

For the compound `N#Cc1ccc2ncnc(NCCc3ccccc3)c2c1`, the IC50 on CDK8/Cyclin C came out at 35 nM; in [1] it was 349 nM; in [2], 994 nM.

As for `Brc1ccc2nccc(NCCc3ccccc3)c2c1`, the concentration for half-maximal inhibition (IC50) on CDK8/Cyclin C was 183 nM; in [1], greater than 5000 nM.

Take `N#Cc1ccc2nccc(NCCc3ccc4cc(C(=O)N5CCN(CCCN)CC5)ccc4c3)c2c1`: the IC50 at CDK8/Cyclin C amounted to 6.5 nM; in series [1] it was 870 nM; in series [2] it was 305 nM.

As to `CN(CCCNC(=O)OC(C)(C)C)C(=O)c1ccc2cc(CCNc3ccnc4ccc(C#N)cc34)ccc2c1`, the IC50 on CDK8/Cyclin C came to 9.3 nM; in [1], 208 nM; in series [2], 173 nM.

On to `c1ccc(CCNc2ccnc3ccccc23)cc1`, for which the IC50 on CDK8/Cyclin C is greater than 1000 nM; in series [1], greater than 5000 nM.

As for `N#Cc1ccc2nccc(NCCc3ccc4cc(C(=O)N5CCSCC5)ccc4c3)c2c1`, the IC50 at CDK8/Cyclin C was 9.1 nM; in [1], 138 nM; in [2] it was 93 nM.

For the compound `N#Cc1ccc2nccc(NCCc3ccc4cc(C(=O)N5CC[S+]([O-])CC5)ccc4c3)c2c1`, the half-maximal inhibitory concentration (IC50) at CDK8/Cyclin C was 5.8 nM; in series [1] it was 160 nM; in series [2], 222 nM.

Take `CN(CCCN)C(=O)c1ccc2cc(CCNc3ccnc4ccc(C#N)cc34)ccc2c1`: the values for the 50% inhibitory concentration (IC50) (on CDK8/Cyclin C; in [1]; in [2]) were 9.2 nM, 118 nM and 297 nM, respectively.

On to `CNC(=O)c1ccc2nccc(NCCc3ccccc3)c2c1`, for which the IC50 is greater than 1000 nM on CDK8/Cyclin C and greater than 5000 nM in [1].

As to `Clc1ccc2nccc(NCCc3ccccc3)c2c1`, the half-maximal inhibitory concentration (IC50) at CDK8/Cyclin C is 44 nM; in [1] it was greater than 5000 nM.

`Ic1ccc2nccc(NCCc3ccccc3)c2c1`: the IC50 on CDK8/Cyclin C is 212 nM; in [1], greater than 5000 nM.

With `CC(C)(C)OC(=O)NCCCN1CCN(C(=O)c2ccc3cc(CCNc4ccnc5ccc(C#N)cc45)ccc3c2)CC1`, the IC50 is 8.1 nM at CDK8/Cyclin C, 81 nM in series [1] and 167 nM in series [2].

Take `Nc1ccc2nccc(NCCc3ccccc3)c2c1`: the values for the half-maximal inhibitory concentration (IC50) (at CDK8/Cyclin C; in [1]) were greater than 1000 nM and greater than 5000 nM, respectively.

For `CN1CCN(C(=O)c2ccc3cc(CCNc4ncnc5ccc(C#N)cc45)ccc3c2)CC1` [SENEXIN B], the outcome in the series with HEK293 [3] and in the series with HEK293 [13] was inactive. Further, the K in series [4] was 1.65 10^6/M/s; in [5], 2.13 10^6/M/s; in [6], 0.00325 s⁻¹; in [7] it was 0.00628 s⁻¹. Also, the MRT in series [8] came out at 5.13 min; in [9], 2.65 min. For the same compound, the T1/2 in [10] amounted to 3.55 min; in [11], 1.84 min. In addition, the CLH in [12] stood at 0.0198 mL/min.
